In US10336716B2, “Thermodynamically stable crystal modification of 2-methyl-N-(5-methyl-1, 3, 4-oxadiazol-2-yl)-3-(methylsulfonyl)-4-(trifluoromethyl)benzamide” (Bayer CropScience Aktiengesellschaft, priority 2015, dated 2019):

Experiments:
Assay type in all cases: physicochemical
[1] = wettability on mixing with water (first comparative experiment)
Description: Moreover, the benzamide obtainable according to the disclosure of WO 2012/126932 A1 has the disadvantage that it can be less readily worked up, filtered, purified and wetted with solvents. […] These disadvantages are overcome by the provision of the thermodynamically stable benzamide according to the invention.

[2] = stability test: storage of oil dispersion; settings: after several weeks of storage
[3] = testing in practice of suspension formulations; settings: suspension formulation, benzamide finely ground in solid form
Description: The benzamide known for example from WO 2012/126932 A1 (example No. 2-145 in table 2 therein) has herbicidal properties and is suitable for the production of crop protection compositions which can be employed for weed control. However, it has been shown that the benzamide obtainable according to the disclosure of WO 2012/126932 A1 is not suitable for the preparation of user-friendly administration forms. User-friendly administration forms are, for example, suspension formulations in which the benzamide is present finely ground in solid form. […] The crystal growth can occur spontaneously or over a longer period and cannot be predicted.

wettability ([1]; after 1 minute on mixing with water)	clumping and precipitation of oil dispersion on storage [2]	wettability with solvents (in words) ([1]; solvents such as water and aqueous solvents)	Compound	crystal growth in suspension formulations [3]
100%	no signs of clumping and precipitation	–	Cc1nnc(NC(=O)c2ccc(C(F)(F)F)c(S(C)(=O)=O)c2C)o1 [crystal modification A, 2-methyl-N-(5-methyl-1,3,4-oxadiazol-2-yl)-3-(methylsulfonyl)-4-(trifluoromethyl)benzamide]	–
–	–	poorer wettability	Cc1nnc(NC(=O)c2ccc(C(F)(F)F)c(S(C)(=O)=O)c2C)o1 [2-methyl-N-(5-methyl-1,3,4-oxadiazol-2-yl)-3-(methylsulfonyl)-4-(trifluoromethyl)benzamide]	leads to crystal growth in suspension formulations and consequently to clumping and precipitation
